Measurements as given in patent EP2386565A2, “Compounds and methods to inhibit or augment an inflammatory response” (Cambridge Enterprise Ltd., priority 1999, dated 2000).
Positions of bridges follow the written chain, without caps; N, C: chain ends. Non-standard residues stand in square brackets, D forms with d. Residues, ends and D or L forms follow the SMILES beside them.

Key:
[1] = system: IL8 induced THP-1 migration; assay: THP-1 trans-well migration assay, IL8 as chemoattractant; format: cell-based, human
Description: To determine whether an agent inhibits a chemokine-induced activity, such as macrophage recruitment, varying amounts of the agent are mixed with cells in the presence of a known chemoattractant. For example, a range of known concentrations of an agent, e.g., a chemokine peptide, is incubated with a defined number (e.g., 10^4 - […]) of human THP-1 monocyte cells in individual wells of the top compartment of a trans-well plate. Chemokine (such as MCP-1, MIP1α, IL8 or SDF-1α), at a concentration known to cause significant migration of THP-1 cells in the trans-well migration assay, is placed in the lower compartment (Figure 1). […] A standard curve consisting of a two-fold dilution series of THP-1 cells (in 29 µl) is prepared to accurately quantify the number of cells that have migrated. […] Absorbance of converted dye is measured at a wavelength of 595 nm using an ELISA plate reader. The number of migrated cells in each well is then determined by interpolation of the standard curve (see also Imai et al.,J. Biol. Chem., 272, 15036 (1997)). […]
After incubation, the cells were gently removed from the top of the filter with a pipette, 20 µl of 20 mM EDTA in PBS was added into each top well, and the mixture was incubated for 20 minutes at 4°C. […] A standard curve was prepared to accurately quantify the number of THP-1 cells that had migrated. […]

α2-adrenoceptors = assay: Competition of 3H-RS-79948-197 binding to membranes; conditions: 100 µM highest concentration tested
Description: For α2-adrenoreceptor binding, membranes (A-213, RBI/Sigma)) are diluted into binding buffer (75 mM Tris pH 7.4, 12.5 mM MgCl2 and 2 mM EDTA). For example, 10 µl of membranes are diluted in 500 µl of binding buffer (i.e., 1:50 dilution), which is aliquoted into tubes. Cold competitor or test competitor is added, for example, 5 µl of 1 mM oxymetazoline (O-110, RBI/Sigma, 1 mM stock in MilliQ water). Radioligand is then added (^3H-RS-79948-197, TRK 1036, Amersham, 50 µCi in 250 µl, 2.1 µM at 95 Ci/mmol). For competition studies, 1 nM is used. A 100x stock (i.e., 100 nM) is made by diluting the commercial stock 1:20 in binding buffer, and 5 µl is added to every tube. Control tubes have radioligand but no membranes. The mixtures are vortexed, then spun very briefly. The mixtures are then incubated for 1 hour at 27°C in a water bath. The mixture is filtered through GF/C filters over a vacuum. Each filter is pre-soaked in polyethyleneimine (0.3% in water; add 1 ml of 10% stock (P-261; RBI/Sigma) to 33 ml of MilliQ water). The tubes are washed with 2-3 ml of wash buffer (50 mM Tris pH 7.4) and the wash filtered. The filters are then rinsed with 3 × 5 ml of wash buffer, air dried, placed in a scintillation vial and 4.5 ml of scintillant added. The activity on the filter is then determined.

THP-1 cells = assay: Agonist activity: agent in the lower compartment of the migration chamber; format: cell-based, human
Source text: Agents with agonist activity may also be identified using the transwell migration assay, where the cells are placed in the upper compartment (see Figure 1) in the absence of agent, and the agent, e.g. peptide 2[MCP-1], is placed at varying concentrations in the lower compartment in place of the chemokine. […] Preferably, agents having agonist activity also stimulate migration of primary human cells, e.g., monocytes, in a transwell migration assay.
To evaluate the agonist activity ofCRD-Leu4Ile11Cys13 peptide 3(3-12)[MCP-1], CRD-Leu4Ile11Cys13 peptide 3(3-12)[MCP-1] was placed in the lower compartment of the migration chamber at various concentrations and 50,000 THP-1 cells were placed in the upper compartment. The number of cells in the lower compartment after 4 hours was then determined using the vital dye MTT. […] At higher concentrations (1 µM and 10 µM), there may be a small stimulation of migration in this experiment, although the magnitude of this migratory response was less than that seen with 3.25 ng/ml recombinant MCP-1. CRD-Leu4Ile11Cys13 peptide 3(3-12)[MCP-1] is unlikely to have any agonist activity that is significant at concentrations attainable in vivo.

SMILES | % inhibition at 100 µM versus IL8 ([1]; THP-1 migration, agent at 100 µM, n.s. or dash = no statistically significant inhibition) | ED50 (µM) versus IL8 ([1]; inhibition of THP-1 migration, n.s. = not statistically significant) | ED50 for competition of RS79943 binding to α2-adrenoceptors (α2-adrenoceptors) | agonist activity (in words) (THP-1 cells)
CC[C@H](C)[C@H](NC(=O)[C@H](C)NC(=O)[C@H](CC(=O)O)NC(=O)[C@@H]1CCCN1C(=O)[C@H](CCC(N)=O)NC(=O)[C@H](C)N)C(=O)N[C@@H](CC(N)=O)C(=O)N[C@@H](C)C(=O)N1CCC[C@H]1C(=O)N[C@H](C(=O)N[C@H](C(=O)N[C@@H](CS)C(=O)N[C@@H](CS)C(=O)O)[C@@H](C)O)C(C)C [Peptide 1] (H-AQPDAINAPVTCC-OH; N-terminus and C-terminus assumed) | n.s. | n.s. |  | 
CC[C@@H](C)[C@H]1NC(=O)[C@@H](CCC(N)=O)NC(=O)[C@H](N)CSSC[C@H](C(N)=O)NC(=O)[C@@H](CC(C)C)NC(=O)[C@@H](CC(=O)O)NC(=O)[C@H]2CCCN2C(=O)[C@@H](CCCCN)NC(=O)[C@@H](CCC(N)=O)NC(=O)[C@@H](CCCCN)NC(=O)[C@@H](Cc2c[nH]c3ccccc23)NC1=O (H-[dC][dQ][dI][dW][dK][dQ][dK][dP][dD][dL][dC]-NH2; disulfide 1-11) |  |  | >100 µM | No agonist activity was detected
